The nature of data set [1]: Plasma pharmacokinetics of CMS and colistin after multi-dose intravenous infusions of CMS. As to conditions: mean ± SD, n = 12, SD; for CLr: renal clearance.
Description: (§2) A single-center, open-label, multi-dose trial design was conducted following multiple intravenous administrations of CMS in 12 healthy Chinese subjects.
(§3) The dose regimen was 2.5 mg/kg CBA for 7 consecutive days with 12 h between each administration, except for one dose on day 1 (first dose) and day 7 (last dose). Each intravenous infusion time was 90 ± 10 min.
(§4) The blood samples were collected on day 1 and day 7 at pre-dose during intravenous infusion (30 min and 60 min after the start of intravenous infusion), immediately after the end of intravenous infusion (1.5 h) and at 1.75 h, 2 h, 2.5 h, 3.5 h, 5 h, 7 h, 9 h, 12 h, 16 h and 24 h after the start of intravenous infusion. From day 2 to day 6, blood samples were collected before and immediately after the end of infusion of the first dose. All blood samples were collected and transferred into an EDTA-K2 tube, and were then centrifuged at 3500 rpm for 10 min at 4 °C. Within 1 h after blood collection, the plasma samples were stored at −70 ± 10 °C until analysis [10].
(§5) The concentrations of CMS and colistin in plasma and urine samples were analyzed with a verified ultra-performance liquid chromatography tandem mass spectrometry method [30]. To determine the free colistin concentration, the matrix was alkalized with 5% ammonia at 0–4 °C, and CMS concentrations were obtained with acid hydrolysis, and then loaded onto the Oasis weak cation exchange 96-well plate (WCX, Waters, Milford, MA, USA). The standard curves of colistin A/colistin B for the plasma and urine samples ranged from 0.0446/0.0332–4.46/3.32 μg/mL to 0.0223/0.0166–2.23/1.66 μg/mL [10], respectively. The concentrations of colistin and CMS were determined as the major components of colistin A+ colistin B and colistin A methanesulfonate (CMS A) + colistin B methanesulfonate (CMS B), respectively.
(§6) The PK parameters of CMS and colistin in plasma were calculated by the non-compartment model [23] using the WinNonlin8.0 software (Pharsight, Mountain View, CA, USA). […] The urine excretion rate was calculated according to the correction of renal clearance (CLr). The PK parameters in urine samples calculated included interval urinary excretion rate, cumulative urinary excretion rate and CLr.
(§7) The PK parameters were expressed as average ± standard deviation (mean ± SD). The main PK parameters after the first and last doses were evaluated by paired t test (SAS 9.4, SAS Institute, Inc., Cary, NC, USA). p value ≤ 0.05 was considered as significant.
The conditions of data set [2]: human, in vivo; cited from earlier work.
The conditions of data set [3]: human, in vivo, iv.
Description: as §2, §3, §4, §5, §6, §7
Data set [4] can be described thus: Safety evaluation: clinical adverse events and laboratory tests. The format is in vivo, human. As for the experimental part:
(§1) During the study, close observations and detailed records were kept in all subjects for clinical adverse events (AE), abnormal results of clinical laboratory tests and other specific examinations. The early renal damage indicators, including serum β2-microglobulin, serum Cysteine […] inhibitor C (Cystatin C), urine neutrophils gelatinase-associated lipocalin (NGAL) and urine β2-microglobulin, were tested at day 4 and day 8 after the start of drug administration.

Data set [5] can be described thus: Early renal damage indicators, serum creatinine and urea. The format is in vivo, human. The note with it: Day8; individual subjects S01–S12, one line each; normal range 0.7-1.8 mg/L. How it is done:
as §1

Setting [6] is: Day 1 (first dose), CMS 2.5 mg/kg CBA i.v.
The mark [7] stands for this setting: Day 1 (first dose), CMS 2.5 mg/kg CBA i.v., plasma.
Setting [8] is: Day 7 (last dose), CMS 2.5 mg/kg CBA i.v. q12 h 7 days.
Setting [9] is: Day 7 (last dose, steady state), CMS 2.5 mg/kg CBA i.v. q12 h 7 days, plasma.
[10] abbreviates: 12 healthy Chinese subjects, CMS 2.5 mg/kg CBA i.v. q12 h 7 days.
Where [11] appears, read: individual healthy Chinese subjects S01–S12, one line each, CMS 2.5 mg/kg CBA i.v. q12 h 7 days.

The values below come from paper PMC9220111, “Pharmacokinetics and Pharmacodynamics of Colistin Methanesulfonate in Healthy Chinese Subjects after Multi-Dose Regimen” (Antibiotics, 2022).

Entries after “also recorded” stand apart in the source; their conditions may differ.

The Vd is the apparent volume that relates the amount in the body to the concentration in plasma or blood. A high value points to extensive tissue distribution. Usually Cmax stands for the maximum level reached in the sampled fluid or tissue. In general, half-life refers to the time in which the quantity being followed falls by half. As for Colistin methanesulfonate [CMS], in data set [1] (setting [6]), the CLt is 1.3 ± 0.33 mL/min/kg, the Vd turned out to be 0.15 ± 0.03 L/kg and the “fm (fraction of CMS converted to colistin in the body)” value is reported as 0.27 ± 0.12. Further, in data set [1] (setting [7]), the “AUC0–12” value is 53730 ± 9770 ng·h/mL and the “AUC0–24” value was determined as 53960 ± 9930 ng·h/mL. This substance also yielded a CLr in data set [1] (Day 1 (first dose), CMS 2.5 mg/kg CBA i.v., day 1 urine stored without BSA, for reference only) of 1 ± 0.17 mL/min/kg. Also, in data set [1] (Day 1 (first dose), healthy Chinese subjects, CMS 2.5 mg/kg CBA i.v. infusion 90 min, plasma, UPLC-MS/MS, non-compartment model), the Cmax was 22200 ± 4380 ng/mL. In data set [1] (setting [8]), the “fm (fraction of CMS converted to colistin in the body)” value is 0.45 ± 0.15 and the CLr is 0.67 ± 0.33 mL/min/kg. The substance also came in with a CLt in data set [1] (Day 7 (last dose, steady state), CMS 2.5 mg/kg CBA i.v. q12 h 7 days) of 1.3 ± 0.33 mL/min/kg. Moreover, in data set [1] (setting [9]), the “Cavg,ss” value came out at 4410 ± 754 ng/mL and the “Cmin,ss” value was 133 ± 141 ng/mL. In addition, in data set [1] (Day 7, after 7 consecutive days of CMS 2.5 mg/kg CBA i.v. q12 h), the “AI (accumulation index)” value is reported as 1.07 ± 0.10. Moreover, the incidence of nephrotoxicity in data set [2] is listed as 26.0–74.1%. In addition, in data set [3], the “T1/2, median” value is 1.72 h and the half-life was 1.52 h. Moreover, in data set [4] (setting [10]), the “Deaths or serious adverse events” value is reported as “No serious adverse events were observed; also recorded: No deaths or other serious adverse events occurred”; the “Vital signs, QTc and electrocardiogram” value is “No abnormal vital signs nor QTc prolongations or other clinically significant electrocardiogram abnormalities were found”. Moreover, the Nephrotoxicity entry in data set [4] (12 healthy Chinese subjects, CMS 2.5 mg/kg CBA i.v. q12 h 7 days, no increase in urine β2 microglobulin and urine NGAL) was “no nephrotoxicity was observed; also recorded: No obvious nephrotoxicity occurred”. Besides, the “Subjects with adverse effects” value in data set [4] (12 healthy Chinese subjects, after multi-dose i.v. infusions of CMS, all mild and transient) was “Eleven out of the twelve”. Also, in data set [4] (setting [11]), the “Abnormality in Laboratory Test” value was “Normal; also recorded: Decreased absolute value of neutrophils (2 days)”; the “Clinical Adverse Event (Duration)” value is “Facial itchiness (4 days and 12 h) Tongue numbness (5 days and 2 h) Dizziness (2 days and 16 h); also recorded: Facial itchiness (2 days and 3 h) Tongue numbness (5 days and 8 h); also recorded: Tongue numbness (6 days and 12 h) Lip numbness (5 days and 10 h) Sore throat (1 day and 23 h) Erythema (6 days and 13 h); also recorded: Normal; also recorded: Tongue numbness (5 days and 20 h) Dizziness (4 h); also recorded: Tongue numbness (5 days and 14 h); also recorded: Tongue numbness (5 days and 8 h) Dizziness (2 days and 13 h) Headache (1 day and 19 h) Lip numbness (1 day and 10 h) Skin itchiness (1 day and 20 h); also recorded: Tongue numbness (5 days and 20 h) Lip numbness (2 days and 15 h) Pharyngeal discomfort (5 days and 16 h) Facial numbness (4 days and 16 h)”. For the same substance, the “serum β2-microglobulin” value in data set [5] is 1.72 mg/L.
